According to US8575364B2, “Modulators of serotonin receptor” (Janssen Pharmaceutica NV, priority 2008, dated 2013):
Counter-ions that a name gives are not always drawn.

Assays:
rat 5-HT7 receptors = rat 5-HT7 receptors (Rattus norvegicus (Rat), UniProt P32305); assay: r5-HT7 competitive radioligand binding assay ([3H]5-CT); conditions: membrane fractions of HEK-293 cells recombinantly expressing rat 5-HT7
Description: Compound affinity for the rat 5-HT7 receptor subtype was evaluated by competitive radioligand binding assays using 5-carboxamido[^3H]tryptamine ([^3H]5-CT) (Amersham Biosciences, cat. 90000403) detection. HitHunter™ cAMP assays are in-vitro based competitive immunoassays. […] Cells were pre-incubated with test compounds for 10 minutes. For agonistic testing, the concentration of test compound that produced a half-maximal response is represented by the EC50 value. Compounds were assayed in their free form or as salts, as indicated in the Examples section above.

r5-HT7 receptor = r5-HT7 receptor (Rattus norvegicus (Rat), UniProt P32305); assay: HitHunter cAMP assay, agonistic testing; assay type: cell-based; conditions: HEK-293 cells stably transfected with r5-HT7 receptor
Chain of r5-HT7 receptor (P32305 1-435): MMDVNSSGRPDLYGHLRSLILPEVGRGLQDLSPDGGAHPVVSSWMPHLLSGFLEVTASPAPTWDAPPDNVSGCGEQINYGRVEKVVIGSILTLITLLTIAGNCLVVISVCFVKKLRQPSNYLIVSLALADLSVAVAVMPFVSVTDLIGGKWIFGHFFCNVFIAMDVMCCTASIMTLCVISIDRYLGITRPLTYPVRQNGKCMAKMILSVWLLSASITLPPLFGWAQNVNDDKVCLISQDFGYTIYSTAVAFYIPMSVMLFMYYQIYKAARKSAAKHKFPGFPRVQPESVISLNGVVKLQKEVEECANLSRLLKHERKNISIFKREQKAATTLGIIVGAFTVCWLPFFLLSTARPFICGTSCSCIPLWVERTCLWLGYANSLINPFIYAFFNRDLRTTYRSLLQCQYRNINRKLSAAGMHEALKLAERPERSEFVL
Description: Receptor binding was performed using membrane fractions prepared from the HEK-293 cell line recombinantly expressing rat 5-HT7 receptors (NCBI accession NM_022938). Compound affinity for the rat 5-HT7 receptor subtype was evaluated by competitive radioligand binding assays using 5-carboxamido[^3H]tryptamine ([^3H]5-CT) (Amersham Biosciences, cat. 90000403) detection. HitHunter™ cAMP assays are in-vitro based competitive immunoassays. The assay was performed on the HEK-293 cell line stably transfected with r5-HT7 receptor. Cells were pre-incubated with test compounds for 10 minutes. For agonistic testing, the concentration of test compound that produced a half-maximal response is represented by the EC50 value. Compounds were assayed in their free form or as salts, as indicated in the Examples section above.

Chain of rat 5-HT7 receptors (P32305 1-435): as above

| SMILES | Ki (rat 5-HT7 receptors) [nM] | EC50 (r5-HT7 receptor) [nM] |
| --- | --- | --- |
| COc1ccc(-c2ccccc2C)cc1OC1CNC1 [Example 8, 3-(4-Methoxy-2′-methyl-biphenyl-3-yloxy)-azetidine trifluoroacetate] | 13.5 | 794 |
| COc1ccc(-c2ccccc2)cc1C1CCNC1 (racemic) [Example 49, (±)-3-(4-Methoxy-biphenyl-3-yl)-pyrrolidine] | 130 |  |
| Cc1ccccc1-c1ccc(OCC2CC2)c(OC2CNC2)c1 [Example 35, 3-(4-Cyclopropylmethoxy-2′-methyl-biphenyl-3-yloxy)-azetidine] | 755 |  |
| Clc1ccc(-c2ccccc2C2CCNC2)cc1 (stereo not drawn) [Example 56, 3-(4′-Chloro-biphenyl-2-yl)-pyrrolidine] | 180 |  |
| Cc1cccc(-c2ccccc2C2CCNC2)c1 (racemic) [Example 52, (±)-3-(3′-Methyl-biphenyl-2-yl)-pyrrolidine] | 80.2 |  |
| Cc1cc(-c2ccc(Cl)cc2OC2CNC2)ccc1F [Example 41, 3-(4-Chloro-4′-fluoro-3′-methyl-biphenyl-2-yloxy)-azetidine] | 470 |  |

Results, then the compound that gave them:

| Ki (rat 5-HT7 receptors) [nM] | EC50 (r5-HT7 receptor) [nM] | SMILES |
| --- | --- | --- |
| 4.42 | 794 | COc1ccc(-c2ccccc2Cl)cc1OC1CNC1 [Example 17, 3-(2′-Chloro-4-methoxy-biphenyl-3-yloxy)-azetidine] |
| 3.79 | 200 | COc1ccc(-c2ccccc2C(F)(F)F)cc1OC1CNC1 [Example 1, 3-(4-Methoxy-2′-trifluoromethyl-biphenyl-3-yloxy)-azetidine] |
| 19 | 1580 | COc1ccc(-c2cccc(F)c2C)cc1OC1CNC1 [Example 5, 3-(3′-Fluoro-4-methoxy-2′-methyl-biphenyl-3-yloxy)-azetidine] |
| 11 | 631 | COc1ccc(-c2cccc(C)c2C)cc1OC1CNC1 [Example 4, 3-(4-Methoxy-2′,3′-dimethyl-biphenyl-3-yloxy)-azetidine] |
